Test results reported in ChEMBL document CHEMBL4270599, “Synthesis of a 3'-C-ethynyl-β-d-ribofuranose purine nucleoside library: Discovery of C7-deazapurine analogs as potent antiproliferative nucleosides” (Eur J Med Chem, 2018).

What was measured:
Type in all cases: functional
[1] = tested on: ACHN; assay: Growth inhibition of human ACHN cells assessed as cell growth at 10^-6 M incubated for 48 hrs by sulforhodamine B assay relative to control; settings: read-out: Activity
[2] = tested on: A498; assay: Growth inhibition of human A498 cells assessed as cell growth at 10^-7 M incubated for 48 hrs by sulforhodamine B assay relative to control; settings: A498, 48 h, read-out: Activity
[3] = tested on: RPMI-8226; assay: Growth inhibition of human RPMI8226 cells assessed as cell growth at 10^-7 M incubated for 48 hrs by sulforhodamine B assay relative to control; settings: RPMI-8226, 48 h, read-out: Activity
[4] = tested on: U-251; assay: Growth inhibition of human U251 cells assessed as cell growth at 10^-6 M incubated for 48 hrs by sulforhodamine B assay relative to control; settings: U-251, 48 h, read-out: Activity
[5] = tested on: SN12C; assay: Growth inhibition of human SN12C cells assessed as cell growth at 10^-5 M incubated for 48 hrs by sulforhodamine B assay relative to control; settings: read-out: Activity
[6] = tested on: SF-268; assay: Cytotoxicity against human SF268 cells after 48 hrs by SRB assay; settings: SF-268, 48 h
[7] = tested on: SK-MEL-5; assay: Growth inhibition of human SK-MEL-5 cells assessed as cell growth at 10^-7 M incubated for 48 hrs by sulforhodamine B assay relative to control; settings: SK-MEL-5, 48 h, read-out: Activity
[8] = tested on: UACC-62; assay: Growth inhibition of human UACC62 cells assessed as cell growth at 10^-8 M incubated for 48 hrs by sulforhodamine B assay relative to control; settings: UACC-62, 48 h, read-out: Activity
[9] = tested on: IGROV-1; assay: Cytotoxicity against human IGROV1 cells after 48 hrs by SRB assay; settings: IGROV-1, 48 h
[10] = tested on: UACC-62; assay: Growth inhibition of human UACC62 cells assessed as cell growth at 10^-5 M incubated for 48 hrs by sulforhodamine B assay relative to control; settings: UACC-62, 48 h, read-out: Activity
[11] = tested on: Malme-3M; assay: Growth inhibition of human MALME-3M cells assessed as cell growth at 10^-6 M incubated for 48 hrs by sulforhodamine B assay relative to control; settings: read-out: Activity
[12] = tested on: HL-60(TB); assay: Growth inhibition of human HL-60(TB) cells assessed as cell growth at 10^-7 M incubated for 48 hrs by sulforhodamine B assay relative to control; settings: HL-60, 48 h, read-out: Activity
[13] = tested on: NCI-H522; assay: Cytotoxicity against human NCI-H522 cells after 48 hrs by SRB assay; settings: NCI-H522, 48 h
[14] = tested on: CCRF-CEM; assay: Growth inhibition of human CCRF-CEM cells assessed as cell growth at 10^-8 M incubated for 48 hrs by sulforhodamine B assay relative to control; settings: read-out: Activity
[15] = tested on: T47D; assay: Cytotoxicity against human T47D cells after 48 hrs by SRB assay
[16] = tested on: OVCAR-4; assay: Growth inhibition of human OVCAR4 cells assessed as cell growth at 10^-8 M incubated for 48 hrs by sulforhodamine B assay relative to control; settings: OVCAR-4, 48 h, read-out: Activity
[17] = tested on: MDA-MB-435; assay: Growth inhibition of human MDA-MB-435 cells assessed as cell growth at 10^-5 M incubated for 48 hrs by sulforhodamine B assay relative to control; settings: MDA-MB-435, 48 h, read-out: Activity
[18] = tested on: A549; assay: Growth inhibition of human A549/ATCC cells assessed as cell growth at 10^-6 M incubated for 48 hrs by sulforhodamine B assay relative to control; settings: A549, 48 h, read-out: Activity
[19] = tested on: NCI-H522; assay: Growth inhibition of human NCI-H522 cells assessed as cell growth at 10^-8 M incubated for 48 hrs by sulforhodamine B assay relative to control; settings: NCI-H522, 48 h, read-out: Activity
[20] = tested on: HCT-116; assay: Growth inhibition of human HCT116 cells assessed as cell growth at 10^-4 M incubated for 48 hrs by sulforhodamine B assay relative to control; settings: HCT-116, 48 h, read-out: Activity
[21] = tested on: SNB-75; assay: Growth inhibition of human SNB75 cells assessed as cell growth at 10^-6 M incubated for 48 hrs by sulforhodamine B assay relative to control; settings: SNB-75, 48 h, read-out: Activity
[22] = tested on: MDA-MB-231; assay: Growth inhibition of human MDA-MB-231 cells assessed as cell growth at 10^-4 M incubated for 48 hrs by sulforhodamine B assay relative to control; settings: MDA-MB-231, 48 h, read-out: Activity
[23] = tested on: CCRF-CEM; assay: Growth inhibition of human CCRF-CEM cells assessed as cell growth at 10^-5 M incubated for 48 hrs by sulforhodamine B assay relative to control; settings: read-out: Activity
[24] = tested on: A549; assay: Cytotoxicity against human A549 cells after 48 hrs by SRB assay; settings: A549, 48 h
[25] = tested on: LOX IMVI; assay: Cytotoxicity against human LOXIMVI cells after 48 hrs by SRB assay
[26] = tested on: NCI-H460; assay: Growth inhibition of human NCI-H460 cells assessed as cell growth at 10^-6 M incubated for 48 hrs by sulforhodamine B assay relative to control; settings: NCI-H460, 48 h, read-out: Activity
[27] = tested on: MOLT-4; assay: Growth inhibition of human MOLT4 cells assessed as cell growth at 10^-6 M incubated for 48 hrs by sulforhodamine B assay relative to control; settings: MOLT-4, 48 h, read-out: Activity
[28] = tested on: MDA-MB-435; assay: Growth inhibition of human MDA-MB-435 cells assessed as cell growth at 10^-7 M incubated for 48 hrs by sulforhodamine B assay relative to control; settings: MDA-MB-435, 48 h, read-out: Activity
[29] = tested on: SNB-19; assay: Growth inhibition of human SNB19 cells assessed as cell growth at 10^-8 M incubated for 48 hrs by sulforhodamine B assay relative to control; settings: SNB-19, 48 h, read-out: Activity
[30] = tested on: SK-OV-3; assay: Growth inhibition of human SKOV3 cells assessed as cell growth at 10^-4 M incubated for 48 hrs by sulforhodamine B assay relative to control; settings: SK-OV-3, 48 h, read-out: Activity
[31] = tested on: HL-60(TB); assay: Cytotoxicity against human HL-60(TB) cells after 48 hrs by SRB assay; settings: HL-60, 48 h
[32] = tested on: UACC-257; assay: Cytotoxicity against human UACC257 cells after 48 hrs by SRB assay; settings: UACC-257, 48 h
[33] = read-out: pLC50 (the source's name) (converted)
[34] = read-out: LC50 (the source's name)

C#C[C@@]1(O)[C@@H](CO)O[C@@H](n2ccc3c(N)ncnc32)[C@@H]1O
growth at 1 µM [1]: 33% | growth at 0.1 µM [2]: 105% | growth at 0.1 µM [3]: 98% | growth at 1 µM [4]: 80% | growth at 10 µM [5]: -31% | TGI ([6]; read-out: TGI): 26.1 µM | GI50 ([6]; read-out: pGI50 (converted)): 2.34 µM | CC50 [6, 33]: > 100 µM | TGI ([6]; read-out: pTGI (converted)): 26.3 µM | growth at 0.1 µM [7]: 101% | growth at 0.01 µM [8]: 97% | CC50 [9, 34]: > 100 µM | TGI ([9]; read-out: TGI): 5.85 µM | GI50 ([9]; read-out: pGI50 (converted)): 1.45 µM | TGI ([9]; read-out: pTGI (converted)): 5.89 µM | growth at 10 µM [10]: -44% | growth at 1 µM [11]: 72% | growth at 0.1 µM [12]: 105% | CC50 [13, 34]: > 100 µM | TGI ([13]; read-out: TGI): 3.82 µM | GI50 ([13]; read-out: pGI50 (converted)): 0.372 µM | TGI ([13]; read-out: pTGI (converted)): 3.8 µM | growth at 0.01 µM [14]: 102% | TGI ([15]; read-out: TGI): 2.14 µM | GI50 ([15]; read-out: pGI50 (converted)): 0.447 µM | CC50 [15, 33]: 7.59 µM | TGI ([15]; read-out: pTGI (converted)): 2.14 µM | growth at 0.01 µM [16]: 93% | growth at 10 µM [17]: -62% | growth at 1 µM [18]: 56% | growth at 0.01 µM [19]: 90% | growth at 100 µM [20]: -54% | growth at 1 µM [21]: 90% | growth at 100 µM [22]: -53% | growth at 10 µM [23]: 14% | TGI ([24]; read-out: TGI): > 100 µM | GI50 ([24]; read-out: pGI50 (converted)): 1.32 µM | CC50 [24, 33]: > 100 µM | TGI ([24]; read-out: pTGI (converted)): > 100 µM | TGI ([25]; read-out: TGI): 2.05 µM | GI50 ([25]; read-out: pGI50 (converted)): 0.661 µM | CC50 [25, 33]: 5.13 µM | TGI ([25]; read-out: pTGI (converted)): 2.04 µM | growth at 1 µM [26]: 30% | growth at 1 µM [27]: 38% | growth at 0.1 µM [28]: 99% | growth at 0.01 µM [29]: 99% | growth at 100 µM [30]: -11% | TGI ([31]; read-out: TGI): 5.49 µM | GI50 ([31]; read-out: pGI50 (converted)): 1.58 µM | CC50 [31, 33]: > 100 µM | TGI ([31]; read-out: pTGI (converted)): 5.5 µM | TGI ([32]; read-out: TGI): 7.05 µM | GI50 ([32]; read-out: pGI50 (converted)): 2.29 µM | CC50 [32, 33]: 55 µM | TGI ([32]; read-out: pTGI (converted)): 7.08 µM
